Assays:
[1] = target: T1, Helios (Homo sapiens, UniProt Q96SW2+Q9UKS7); experiment: Helios Cellular Degradation Assay (flow cytometry, Helios-PE antibody staining, 72 h); assay type: cell-based; conditions: Jurkat cells, 72 h incubation, flow cytometry
T1 construct: fluorescently labelled antibodies against Helios and Ikaros; endogenous in cells; host or cells: Jurkat cells
Outline: (§1)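 Jurkat cells (80,000/well, RPMI+10% FBS) were exposed to compound for 72 h at 37 °C, then fixed, permeabilized and co-stained for 1 h with Ikaros-Alexa488 and Helios-PE antibodies. Intracellular protein levels were read by flow cytometry.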

[2] = target: T2, Ikaros (Homo sapiens, UniProt Q13422); experiment: Helios Cellular Degradation Assay, Ikaros readout (flow cytometry, Ikaros-Alexa488 antibody staining, 72 h); assay type: cell-based; conditions: Jurkat cells, 72 h incubation, flow cytometry
T2 construct: fluorescently labelled antibodies against Helios and Ikaros; endogenous in cells; host or cells: Jurkat cells
Outline: as §1

T1 sequence (Q9UKS7 whole entry): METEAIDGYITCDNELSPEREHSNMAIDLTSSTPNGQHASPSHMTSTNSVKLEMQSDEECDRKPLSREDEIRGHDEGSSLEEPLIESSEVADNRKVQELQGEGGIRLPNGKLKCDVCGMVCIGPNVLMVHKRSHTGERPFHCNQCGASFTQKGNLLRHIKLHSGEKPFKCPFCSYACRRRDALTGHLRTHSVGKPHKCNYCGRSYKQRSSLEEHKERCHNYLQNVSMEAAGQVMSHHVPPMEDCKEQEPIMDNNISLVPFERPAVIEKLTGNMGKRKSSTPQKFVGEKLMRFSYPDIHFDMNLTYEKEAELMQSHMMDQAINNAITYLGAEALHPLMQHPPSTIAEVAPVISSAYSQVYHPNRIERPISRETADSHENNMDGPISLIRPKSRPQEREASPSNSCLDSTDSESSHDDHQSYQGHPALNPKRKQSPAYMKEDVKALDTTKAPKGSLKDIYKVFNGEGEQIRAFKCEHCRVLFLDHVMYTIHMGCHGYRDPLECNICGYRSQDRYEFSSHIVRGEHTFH
T1 sequence (Q96SW2 whole entry): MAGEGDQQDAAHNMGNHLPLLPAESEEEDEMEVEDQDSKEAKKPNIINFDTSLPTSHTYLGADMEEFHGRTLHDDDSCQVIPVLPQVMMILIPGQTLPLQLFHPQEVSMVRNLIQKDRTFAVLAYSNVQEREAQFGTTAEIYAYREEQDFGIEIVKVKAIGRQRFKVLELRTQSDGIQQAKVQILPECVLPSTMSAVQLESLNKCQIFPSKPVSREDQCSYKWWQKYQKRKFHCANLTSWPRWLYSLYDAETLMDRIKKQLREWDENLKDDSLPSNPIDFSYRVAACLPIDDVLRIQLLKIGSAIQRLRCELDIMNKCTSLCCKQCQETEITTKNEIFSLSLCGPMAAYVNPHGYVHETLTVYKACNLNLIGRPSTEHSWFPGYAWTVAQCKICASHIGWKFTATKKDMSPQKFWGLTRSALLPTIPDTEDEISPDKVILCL
T1 sequence (Q16531 whole entry partner): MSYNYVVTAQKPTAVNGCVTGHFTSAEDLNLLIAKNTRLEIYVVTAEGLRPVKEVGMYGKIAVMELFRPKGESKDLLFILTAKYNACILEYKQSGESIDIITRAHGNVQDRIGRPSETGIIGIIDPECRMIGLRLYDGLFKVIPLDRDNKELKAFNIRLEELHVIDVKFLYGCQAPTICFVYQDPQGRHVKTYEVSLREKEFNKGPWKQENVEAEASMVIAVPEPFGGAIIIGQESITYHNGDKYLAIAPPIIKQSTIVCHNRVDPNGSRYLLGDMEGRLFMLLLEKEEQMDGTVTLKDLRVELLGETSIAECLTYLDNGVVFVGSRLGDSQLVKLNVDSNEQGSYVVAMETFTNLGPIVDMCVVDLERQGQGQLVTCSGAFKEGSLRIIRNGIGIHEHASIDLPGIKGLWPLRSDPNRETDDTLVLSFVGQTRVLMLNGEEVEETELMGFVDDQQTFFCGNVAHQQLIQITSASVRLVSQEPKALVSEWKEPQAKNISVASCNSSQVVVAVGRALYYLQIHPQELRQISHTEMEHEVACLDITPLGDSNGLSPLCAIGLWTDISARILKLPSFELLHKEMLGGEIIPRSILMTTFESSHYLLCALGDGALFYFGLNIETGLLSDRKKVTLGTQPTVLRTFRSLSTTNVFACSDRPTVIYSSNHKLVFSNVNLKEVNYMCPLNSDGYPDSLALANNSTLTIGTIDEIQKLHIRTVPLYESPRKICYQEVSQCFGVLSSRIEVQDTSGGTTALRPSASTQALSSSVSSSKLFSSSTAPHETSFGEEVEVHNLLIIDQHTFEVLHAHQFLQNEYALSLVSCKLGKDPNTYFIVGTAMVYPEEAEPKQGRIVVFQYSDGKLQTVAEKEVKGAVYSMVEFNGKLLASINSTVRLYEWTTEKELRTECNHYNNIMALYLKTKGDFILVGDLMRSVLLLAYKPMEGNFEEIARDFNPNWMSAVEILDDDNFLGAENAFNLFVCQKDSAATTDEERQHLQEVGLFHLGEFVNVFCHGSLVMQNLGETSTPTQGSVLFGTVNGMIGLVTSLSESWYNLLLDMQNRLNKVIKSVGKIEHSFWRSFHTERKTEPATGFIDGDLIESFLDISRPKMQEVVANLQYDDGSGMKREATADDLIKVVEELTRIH
T2 sequence (Q96SW2 whole entry partner): as the sequence (Q96SW2 whole entry) above
T2 sequence (Q16531 whole entry partner): as the sequence (Q16531 whole entry partner) above
T2 sequence (Q13422 whole entry): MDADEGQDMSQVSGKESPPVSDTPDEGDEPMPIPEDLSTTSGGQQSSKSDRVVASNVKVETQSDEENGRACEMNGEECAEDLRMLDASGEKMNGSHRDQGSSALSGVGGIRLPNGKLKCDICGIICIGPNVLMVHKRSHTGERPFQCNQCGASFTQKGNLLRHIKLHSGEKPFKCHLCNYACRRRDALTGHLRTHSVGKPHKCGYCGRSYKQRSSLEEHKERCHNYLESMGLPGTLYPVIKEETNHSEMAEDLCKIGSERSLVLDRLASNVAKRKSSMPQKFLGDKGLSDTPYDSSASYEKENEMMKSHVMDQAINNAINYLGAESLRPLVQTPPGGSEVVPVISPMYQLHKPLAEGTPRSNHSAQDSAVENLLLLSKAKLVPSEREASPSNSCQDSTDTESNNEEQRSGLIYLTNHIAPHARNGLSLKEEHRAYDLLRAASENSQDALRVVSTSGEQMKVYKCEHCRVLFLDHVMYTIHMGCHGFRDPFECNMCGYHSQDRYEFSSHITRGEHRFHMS

Structure (SMILES): O=C1CCC(N2Cc3c(ccc(-c4cc(CN5CC(c6ccccc6)C5)ccn4)c3F)C2=O)C(=O)N1 (stereo not shown) [Example 208, 3-(4-Fluoro-1-oxo-5-(4-((3-phenylazetidin-1-yl)methyl)pyridin-2-yl)isoindolin-2-yl)piperidine-2,6-dione]
- DC50 [1]: 3 nM
- Dmax ([1]; Jurkat, read-out: Helios Dmax): 88%
- DC50 [2]: > 10000 nM
- Dmax ([2]; Jurkat, read-out: Ikaros Dmax): 13%
